Seven compounds from patent publication US20220236254A1, “BITTER TASTE RECEPTOR BLOCKERS AND METHODS OF THEIR IDENTIFICATION” (Firmenich Incorporated, priority 2019, published 2022) can be followed below.

Holding throughout (type): cell-based
The target of test [1] is T1, polypeptide identified herein as SEQ ID NO: 2 (hT2R44) (Homo sapiens, UniProt P59541, F252L).
T1 construct: expressed in transfected cells; host or cells: cells expressing a promiscuous G protein (G16g44)
T1 sequence (P59541 1-319 F252L): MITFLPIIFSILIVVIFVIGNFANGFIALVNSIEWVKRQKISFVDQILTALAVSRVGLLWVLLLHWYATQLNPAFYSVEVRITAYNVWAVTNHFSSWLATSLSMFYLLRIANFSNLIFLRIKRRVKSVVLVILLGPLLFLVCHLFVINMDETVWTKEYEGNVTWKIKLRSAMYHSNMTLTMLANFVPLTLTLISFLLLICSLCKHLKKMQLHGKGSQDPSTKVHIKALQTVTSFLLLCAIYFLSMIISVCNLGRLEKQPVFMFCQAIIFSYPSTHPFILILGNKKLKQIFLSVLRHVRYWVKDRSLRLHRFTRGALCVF
Description: Bitterness antagonism: PMFs antagonizing limonin on cells expressing the receptor. Particulars: limonin 25 μM. The protocol: (§1) Cells expressing a promiscuous G protein (G16g44) were transfected using TransIT-293 (Mirus) with expression vectors encoding 22 functional biter receptor cDNAs, with one receptor per transfection. The cells were transfected directly in 384-well format high-density plates and incubated for 28 hours. Later, cells were loaded with the Ca-specific dye Fluo4-AM. After an incubation of 60 minutes, excess dye is washed off, and cells are stimulated with respective bitter agonists while simultaneously recording changes in intracellular fluorescence using a FLIPR instrument. Bitter agonist and responding receptors were identified and respective stable bitter receptor cell lines were then used in the same assay to perform full dose-response analysis with the respective bitter agonists.
Certain PMFs were tested for their ability to antagonize binding of limonin to cells expressing the polypeptide identified herein as SEQ ID NO: 2.

For test [2], the target named is T2, SEQ ID NO: 3 (hT2R51) (Homo sapiens, UniProt P59533, A49P/I296V).
T2 construct: expressed in transfected cells; host or cells: cells expressing a promiscuous G protein (G16g44)
T2 sequence (P59533 1-333 A49P/I296V): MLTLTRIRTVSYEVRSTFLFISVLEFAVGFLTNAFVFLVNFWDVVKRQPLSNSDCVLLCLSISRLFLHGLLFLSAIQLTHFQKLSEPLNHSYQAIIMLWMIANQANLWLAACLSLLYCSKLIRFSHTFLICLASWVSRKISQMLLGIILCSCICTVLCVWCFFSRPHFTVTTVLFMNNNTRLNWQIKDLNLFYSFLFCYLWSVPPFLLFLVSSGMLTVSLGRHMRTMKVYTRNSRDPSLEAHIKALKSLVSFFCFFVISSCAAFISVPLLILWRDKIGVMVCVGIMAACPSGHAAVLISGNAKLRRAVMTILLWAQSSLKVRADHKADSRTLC
Description: Bitter receptor identification, FLIPR calcium assay with bitter agonist. Particulars: concentration range of 12.5 μM to 50 μM; cells expressing SEQ ID NO: 3. The protocol: as §1, with “([…])” for “(G16g44)”, “agonists. The above protocol was carried out using limonin as a non-limiting example of a bitter agonist. […] The five expressed receptor proteins correspond to the amino acid sequences identified herein as SEQ ID NO: 1, 2, 3, 4, and 5.” for “agonists.”

The target in test [3] is T3, SEQ ID NO: 2 (hT2R44) (Homo sapiens, UniProt P59541, F252L).
T3 construct: expressed in transfected cells; host or cells: cells expressing a promiscuous G protein (G16g44)
T3 sequence (P59541 1-319 F252L): T1 sequence (P59541 1-319 F252L)
The description is as above. Particulars: concentration range of 12.5 μM to 50 μM; cells expressing SEQ ID NO: 2. The protocol: as §1, with “([…])” for “(G16g44)”, “agonists. The above protocol was carried out using limonin as a non-limiting example of a bitter agonist. […] The five expressed receptor proteins correspond to the amino acid sequences identified herein as SEQ ID NO: 1, 2, 3, 4, and 5.” for “agonists.”

In test [4] the target is T4, SEQ ID NO: 4 (hT2R65) (Homo sapiens, UniProt P59542, V32I).
T4 construct: expressed in transfected cells; host or cells: cells expressing a promiscuous G protein (G16g44)
T4 sequence (P59542 1-299 V32I): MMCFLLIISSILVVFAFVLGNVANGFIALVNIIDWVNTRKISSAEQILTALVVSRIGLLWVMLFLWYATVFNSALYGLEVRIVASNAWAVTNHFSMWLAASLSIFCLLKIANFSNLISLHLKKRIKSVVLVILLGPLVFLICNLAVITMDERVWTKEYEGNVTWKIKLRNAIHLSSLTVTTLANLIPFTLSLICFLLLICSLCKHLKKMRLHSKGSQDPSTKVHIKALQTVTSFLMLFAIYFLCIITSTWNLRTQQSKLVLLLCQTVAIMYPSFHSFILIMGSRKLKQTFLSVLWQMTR
The test is described as above. To be noted: concentration range of 12.5 μM to 50 μM; cells expressing SEQ ID NO: 4. The protocol: as §1, with “([…])” for “(G16g44)”, “agonists. The above protocol was carried out using limonin as a non-limiting example of a bitter agonist. […] The five expressed receptor proteins correspond to the amino acid sequences identified herein as SEQ ID NO: 1, 2, 3, 4, and 5.” for “agonists.”

Test [5] concerns the target T5, SEQ ID NO: 5 (hT2R75) (Homo sapiens, UniProt P59540).
T5 construct: expressed in transfected cells; host or cells: cells expressing a promiscuous G protein (G16g44)
T5 sequence (P59540 1-309): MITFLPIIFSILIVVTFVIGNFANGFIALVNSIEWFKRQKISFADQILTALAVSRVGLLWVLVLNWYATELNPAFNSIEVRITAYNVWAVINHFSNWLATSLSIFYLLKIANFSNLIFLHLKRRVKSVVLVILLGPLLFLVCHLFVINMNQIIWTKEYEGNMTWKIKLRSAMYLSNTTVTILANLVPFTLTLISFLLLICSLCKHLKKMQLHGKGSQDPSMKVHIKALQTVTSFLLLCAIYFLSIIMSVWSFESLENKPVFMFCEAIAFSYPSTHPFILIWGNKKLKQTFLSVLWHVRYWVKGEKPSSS
The description is as above. Particulars: concentration range of 12.5 μM to 50 μM; cells expressing SEQ ID NO: 5. The protocol:
as §1, with “([…])” for “(G16g44)”, “agonists. The above protocol was carried out using limonin as a non-limiting example of a bitter agonist. […] The five expressed receptor proteins correspond to the amino acid sequences identified herein as SEQ ID NO: 1, 2, 3, 4, and 5.” for “agonists.”

The target of test [6] is T6, SEQ ID NO: 1 (hT2R80) (Homo sapiens, UniProt Q9NYW2).
T6 construct: expressed in transfected cells; host or cells: cells expressing a promiscuous G protein (G16g44)
T6 sequence (Q9NYW2 1-309): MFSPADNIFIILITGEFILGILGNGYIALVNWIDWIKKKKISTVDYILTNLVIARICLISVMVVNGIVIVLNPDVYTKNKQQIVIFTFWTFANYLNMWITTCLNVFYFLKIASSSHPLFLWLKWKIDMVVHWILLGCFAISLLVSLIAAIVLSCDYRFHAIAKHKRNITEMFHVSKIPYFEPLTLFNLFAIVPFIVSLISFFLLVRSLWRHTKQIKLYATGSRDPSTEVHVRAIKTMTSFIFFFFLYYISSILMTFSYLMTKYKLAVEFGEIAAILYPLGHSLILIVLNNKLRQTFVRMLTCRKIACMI
The description is as above. To be noted: concentration range of 12.5 μM to 50 μM; cells expressing SEQ ID NO: 1. The protocol: as §1, with “([…])” for “(G16g44)”, “agonists. The above protocol was carried out using limonin as a non-limiting example of a bitter agonist. […] The five expressed receptor proteins correspond to the amino acid sequences identified herein as SEQ ID NO: 1, 2, 3, 4, and 5.” for “agonists.”

The mark [7] stands for this setting: antagonist 200 μM (no antagonist: 98).

The structures appear in SMILES notation.

With `COc1ccc(-c2oc3c(OC)c(OC)c(OC)c(OC)c3c(=O)c2OC)cc1OC`, the “% Limonin Activation” value in test [1] (setting [7]) was 79%.

Regarding `COc1ccc(-c2oc3cc(OC)c(OC)c(OC)c3c(=O)c2OC)cc1OC`, in test [1] (antagonist 100 μM (no antagonist: 98)), the “% Limonin Activation” value amounted to 77%.

`COc1ccc(-c2cc(=O)c3c(OC)c(OC)c(OC)c(OC)c3o2)cc1OC`: the “% Limonin Activation” value in test [1] (setting [7]) worked out at 74%.

As to `COc1ccc(-c2cc(=O)c3c(OC)c(OC)c(OC)cc3o2)cc1OC`, in test [1] (setting [7]), the “% Limonin Activation” value is 70%.

With `COc1ccc(-c2cc(=O)c3c(OC)c(OC)c(OC)c(OC)c3o2)cc1`, the “% Limonin Activation” value in test [1] (antagonist 50 μM (no antagonist: 98)) stood at 76%.

Take `COc1cc(-c2cc(=O)c3c(OC)c(OC)c(OC)cc3o2)ccc1O`: the “% Limonin Activation” value in test [1] (setting [7]) came out at 64%.

For the compound `CC1(C)O[C@H]2CC(=O)OC[C@]23[C@H]2CC[C@@]4(C)[C@H](c5ccoc5)OC(=O)[C@H]5O[C@]54[C@]2(C)C(=O)C[C@@H]13` [limonin], the “dose response of receptor to bitter agonist” value in test [2], in test [3], in test [4], in test [5] and in test [6] was “positive dose response” throughout.
